Where two headings read alike, the source gives them in different places.
System: HBV
Assay: HBV replication inhibition assay (BDNA assay) in HepG2.2.15 cells
Assay type: cell-based
Details: Hepatitis B virus, HepG2.2.15, 144 h, read-out: HepG2.2.15 EC50 HBV DNA
Protocol: HBV replication inhibition by the disclosed compounds were determined in cells infected or transfected with HBV or cells with stably integrated HBV, such as HepG2.2.15 cells (Sells et al. 1987). In this example, HepG2.2.15 cells were maintained in cell culture medium containing 10% fetal bovine serum (FBS), Geneticin, L-glutamine, penicillin and streptomycin. HepG2.2.15 cells were seeded in 96-well plates at a density of 40,000 cells/well and were treated with serially diluted compounds at a final DMSO concentration of 0.5% either alone or in combination by adding drugs in a checker box format. Cells were incubated with compounds for three days, after which medium was removed and fresh medium containing compounds was added to cells and incubated for another three days. At day 6, supernatant was removed and treated with DNase at 37° C. for 60 minutes, followed by enzyme inactivation at 75° C. for 15 minutes. Encapsidated HBV DNA was released from the virions and covalently linked HBV polymerase by incubating in lysis buffer (Affymetrix QS0010) containing 2.5 μg proteinase K at 50° C. for 40 minutes. HBV DNA was denatured by addition of 0.2 M NaOH and detected using a branched DNA (BDNA) QuantiGene assay kit according to manufacturer recommendation (Affymetrix). HBV DNA levels were also quantified using qPCR, based on amplification of encapsidated HBV DNA extraction with QuickExtraction Solution (Epicentre Biotechnologies) and amplification of HBV DNA using HBV specific PCR probes that can hybridize to HBV DNA and a fluorescently labeled probe for quantitation. In addition, cell viability of HepG2.2.15 cells incubated with test compounds alone or in combination was determined by using CellTitre-Glo reagent according to the manufacturer protocol (Promega). The mean background signal from wells containing only culture medium was subtracted from all other samples, and percent inhibition at each compound concentration was calculated by normalizing to signals from HepG2.2.15 cells treated with 0.5% DMSO using equation E1.
% inhibition=(DMSOave−Xi)/DMSOave×100% E1
where DMSOave is the mean signal calculated from the wells that were treated with DMSO control (0% inhibition control) and Xi is the signal measured from the individual wells. EC50 values, effective concentrations that achieved 50% inhibitory effect, were determined by non-linear fitting using Graphpad Prism software (San Diego, Calif.) and equation E2.
Y=Ymin+(Ymax−Ymin)/(1+10(Log EC50−X)×HillSlope) E2
where Y represents percent inhibition values and X represents the logarithm of compound concentrations.
Selected disclosed compounds were assayed in the HBV replication assay (BDNA assay), as described above, and a representative group of these active compounds is shown in Table 3.

[1] = HepG2.2.15 cells, BDNA assay, encapsidated HBV DNA in supernatant at day 6

Row | SMILES | EC50 [1] [nM] | EC50 [nM]
1 | N#Cc1cc(NC(=O)N2CCc3nn4c(c3C2)C(F)(F)CC[C@H](O)C4)ccc1F [Example 3, (S)-N-(3-Cyano-4-fluorophenyl)-11,11-difluoro-8-hydroxy-3,4,8,9,10,11-hexahydro-1H-pyrido[4′,3′:3,4]pyrazolo[1,5-a]azepine-2(7H)-carboxamide] | 22 | –
2 | O=C(Nc1ccc(F)c(C(F)(F)F)c1)N1CCc2nn3c(c2C1)C(F)(F)CC[C@H](O)C3 [Example 4, (S)-11,11-Difluoro-N-(4-fluoro-3-(trifluoromethyl)phenyl)-8-hydroxy-3,4,8,9,10,11-hexahydro-1H-pyrido[4′,3′:3,4]pyrazolo[1,5-a]azepine-2(7H)-carboxamide] | 37 | –
3 | O=C(Nc1ccnc(Br)c1F)N1CCc2nn3c(c2C1)C(F)(F)CC[C@H](O)C3 [Example 5, (S)-N-(2-Bromo-3-fluoropyridin-4-yl)-11,11-difluoro-8-hydroxy-3,4,8,9,10,11-hexahydro-1H-pyrido[4′,3′:3,4]pyrazolo[1,5-a]azepine-2(7H)-carboxamide] | 57 | –
4 | N#Cc1c(F)ccc(NC(=O)N2CCc3nn4c(c3C2)C(F)(F)CC[C@H](O)C4)c1F [Example 6, (S)-N-(3-Cyano-2,4-difluorophenyl)-11,11-difluoro-8-hydroxy-3,4,8,9,10,11-hexahydro-1H-pyrido[4′,3′:3,4]pyrazolo[1,5-a]azepine-2(7H)-carboxamide] | 44 | –
5 | O=C(Nc1ccc(F)c(Br)c1F)N1CCc2nn3c(c2C1)C(F)(F)CC[C@H](O)C3 [Example 7, (S)-N-(3-Bromo-2,4-difluorophenyl)-11,11-difluoro-8-hydroxy-3,4,8,9,10,11-hexahydro-1H-pyrido[4′,3′:3,4]pyrazolo[1,5-a]azepine-2(7H)-carboxamide] | 31 | –
6 | N#Cc1cc(NC(=O)N2CCc3nn4c(c3C2)C(F)(F)CC[C@@H](O)C4)ccc1F [Example 8, (R)-N-(3-Cyano-4-fluorophenyl)-11,11-difluoro-8-hydroxy-3,4,8,9,10,11-hexahydro-1H-pyrido[4′,3′:3,4]pyrazolo[1,5-a]azepine-2(7H)-carboxamide] | 10 | –
7 | O=C(Nc1ccc(F)c(C(F)(F)F)c1)N1CCc2nn3c(c2C1)C(F)(F)CC[C@@H](O)C3 [Example 9, (R)-11,11-Difluoro-N-(4-fluoro-3-(trifluoromethyl)phenyl)-8-hydroxy-3,4,8,9,10,11-hexahydro-1H-pyrido[4′,3′:3,4]pyrazolo[1,5-a]azepine-2(7H)-carboxamide] | 28 | –
8 | O=C(Nc1ccnc(Br)c1F)N1CCc2nn3c(c2C1)C(F)(F)CC[C@@H](O)C3 [Example 10, (R)-N-(2-Bromo-3-fluoropyridin-4-yl)-11,11-difluoro-8-hydroxy-3,4,8,9,10,11-hexahydro-1H-pyrido[4′,3′:3,4]pyrazolo[1,5-a]azepine-2(7H)-carboxamide] | 32 | –
9 | N#Cc1c(F)ccc(NC(=O)N2CCc3nn4c(c3C2)C(F)(F)CC[C@@H](O)C4)c1F [Example 11, (R)-N-(3-Cyano-2,4-difluorophenyl)-11,11-difluoro-8-hydroxy-3,4,8,9,10,11-hexahydro-1H-pyrido[4′,3′:3,4]pyrazolo[1,5-a]azepine-2(7H)-carboxamide] | 24 | –
10 | O=C(Nc1ccc(F)c(Br)c1F)N1CCc2nn3c(c2C1)C(F)(F)CC[C@@H](O)C3 [Example 12, (R)-N-(3-Bromo-2,4-difluorophenyl)-11,11-difluoro-8-hydroxy-3,4,8,9,10,11-hexahydro-1H-pyrido[4′,3′:3,4]pyrazolo[1,5-a]azepine-2(7H)-carboxamide] | 19 | –
11 | N#Cc1cc(NC(=O)N2CCc3nn4c(c3C2)C(F)(F)CC[C@H](OCC(F)F)C4)ccc1F [Example 13, (S)-N-(3-Cyano-4-fluorophenyl)-8-(2,2-difluoroethoxy)-11,11-difluoro-3,4,8,9,10,11-hexahydro-1H-pyrido[4′,3′:3,4]pyrazolo[1,5-a]azepine-2(7H)-carboxamide] | 42 | –
12 | N#Cc1cc(NC(=O)N2CCc3nn4c(c3C2)C(F)(F)CC[C@@H](OCC(F)F)C4)ccc1F [Example 14, (R)-N-(3-Cyano-4-fluorophenyl)-8-(2,2-difluoroethoxy)-11,11-difluoro-3,4,8,9,10,11-hexahydro-1H-pyrido[4′,3′:3,4]pyrazolo[1,5-a]azepine-2(7H)-carboxamide] | 51 | –
13 | N#Cc1cc(NC(=O)N2CCc3nn4c(c3C2)C(F)(F)CCC(O)(CF)C4)ccc1F (stereo not drawn) [Example 37, N-(3-Cyano-4-fluorophenyl)-11,11-difluoro-8-(fluoromethyl)-8-hydroxy-3,4,8,9,10,11-hexahydro-1H-pyrido[4′,3′:3,4]pyrazolo[1,5-a]azepine-2(7H)-carboxamide] | 15 | –
14 | N#CCC1(O)CCC(F)(F)c2c3c(nn2C1)CCN(C(=O)Nc1ccc(F)c(C#N)c1)C3 (stereo not drawn) [Example 40, N-(3-Cyano-4-fluorophenyl)-8-(cyanomethyl)-11,11-difluoro-8-hydroxy-3,4,8,9,10,11-hexahydro-1H-pyrido[4′,3′:3,4]pyrazolo[1,5-a]azepine-2(7H)-carboxamide] | 13 | –
15 | N#Cc1cc(NC(=O)N2CCc3nn4c(c3C2)C(F)(F)CCC(F)(CO)C4)ccc1F (stereo not drawn) [Example 45, N-(3-Cyano-4-fluorophenyl)-8,11,11-trifluoro-8-(hydroxymethyl)-3,4,8,9,10,11-hexahydro-1H-pyrido[4′,3′:3,4]pyrazolo[1,5-a]azepine-2(7H)-carboxamide] | 5 | –
16 | O=C(Nc1ccnc(Br)c1F)N1CCc2nn3c(c2C1)C(F)(F)CCC(F)(CO)C3 (stereo not drawn) [Example 46, N-(2-Bromo-3-fluoropyridin-4-yl)-8,11,11-trifluoro-8-(hydroxymethyl)-3,4,8,9,10,11-hexahydro-1H-pyrido[4′,3′:3,4]pyrazolo[1,5-a]azepine-2(7H)-carboxamide] | 12 | –
17 | CC(=O)NCC1CCC(F)(F)c2c3c(nn2C1)CCN(C(=O)Nc1ccc(F)c(C#N)c1)C3 (stereo not drawn) [Example 49] | 33 | –
18 | CC(=O)NCC1CCC(F)(F)c2c3c(nn2C1)CCN(C(=O)Nc1ccnc(Br)c1F)C3 (stereo not drawn) [Example 50, 8-(Acetamidomethyl)-N-(2-bromo-3-fluoropyridin-4-yl)-11,11-difluoro-3,4,8,9,10,11-hexahydro-1H-pyrido[4′,3′:3,4]pyrazolo[1,5-a]azepine-2(7H)-carboxamide] | 110 | –
19 | N#Cc1cc(NC(=O)N2CCc3nn4c(c3C2)C(F)(F)CCC(CNC(=O)C(F)(F)F)C4)ccc1F (stereo not drawn) [Example 51, N-(3-Cyano-4-fluorophenyl)-11,11-difluoro-8-((2,2,2-trifluoroacetamido)methyl)-3,4,8,9,10,11-hexahydro-1H-pyrido[4′,3′:3,4]pyrazolo[1,5-a]azepine-2(7H)-carboxamide] | – | 32
20 | O=C(Nc1ccnc(Br)c1F)N1CCc2nn3c(c2C1)C(F)(F)CCC(CNC(=O)C(F)(F)F)C3 (stereo not drawn) [Example 52, N-(2-Bromo-3-fluoropyridin-4-yl)-11,11-difluoro-8-((2,2,2-trifluoroacetamido)methyl)-3,4,8,9,10,11-hexahydro-1H-pyrido[4′,3′:3,4]pyrazolo[1,5-a]azepine-2(7H)-carboxamide] | – | 102
21 | COC(=O)NCC1CCC(F)(F)c2c3c(nn2C1)CCN(C(=O)Nc1ccc(F)c(C#N)c1)C3 (stereo not drawn) [Example 53, Methyl ((2-((3-cyano-4-fluorophenyl)carbamoyl)-11,11-difluoro-2,3,4,7,8,9,10,11-octahydro-1H-pyrido[4′,3′:3,4]pyrazolo[1,5-a]azepin-8-yl)methyl)-carbamate] | 10 | –

— patent US20220235051A1, “DI-FLUORO AZEPANES AS HBV CAPSID ASSEMBLY MODULATORS” (priority 2019, published 2022)
